# Data as given in PMC10428001 (Cancer research, 2022).
# What was measured:
# [1] = test system: Ba/F3 cells HER2 A775_G776insYVMA; assay: Ba/F3 cell viability; format: cell-based; conditions: Mus musculus, BaF3, 72 h, read-out: IC50 (average ± SD)
# [2] = test system: Ba/F3 cells WT EGFR (+ rhEGF); assay: Ba/F3 cell viability; format: cell-based; conditions: Mus musculus, BaF3, 72 h, read-out: IC50 (average ± SD)
# [3] = test system: Ba/F3 cells HER2 amplification; assay: Ba/F3 cell viability; format: cell-based; conditions: Mus musculus, BaF3, 72 h, read-out: IC50 (average ± SD)
# [4] = test system: Ba/F3 cells HER2 S310F; assay: Ba/F3 cell viability; format: cell-based; conditions: Mus musculus, BaF3, 72 h, read-out: IC50 (average ± SD)
# [5] = test system: Ba/F3 cells HER2 L755S; assay: Ba/F3 cell viability; format: cell-based; conditions: Mus musculus, BaF3, 72 h, read-out: IC50 (average ± SD)
# [6] = test system: BT-474; assay: Cancer cell viability; format: cell-based, human; conditions: Homo sapiens, BT-474, 72 h, read-out: IC50 (average ± SD)
# [7] = test system: Calu-3; assay: Cancer cell viability; format: cell-based; conditions: Homo sapiens, Calu-3, 72 h, read-out: IC50 (average ± SD)
# [8] = test system: H1781; assay: Cancer cell viability; format: cell-based, human; conditions: Homo sapiens, NCI-H1781, 72 h, read-out: IC50 (average ± SD)
# [9] = test system: MCF7; assay: Cancer cell viability; format: cell-based, human; conditions: Homo sapiens, MCF7, 72 h, read-out: IC50 (average ± SD)
# [10] = test system: Ba/F3 cells HER2 755_757LREdelinsRP; assay: Ba/F3 cell viability; format: cell-based; conditions: Mus musculus, BaF3, 72 h, read-out: IC50 (average ± SD)
# [11] = test system: SKBR3; assay: Cancer cell viability; format: cell-based, human; conditions: Homo sapiens, SK-BR-3, 72 h, read-out: IC50 (average ± SD)
# [12] = test system: Ba/F3 cells HER2 G776delinsVC; assay: Ba/F3 cell viability; format: cell-based; conditions: Mus musculus, BaF3, 72 h, read-out: IC50 (average ± SD)
# [13] = test system: H1819; assay: Cancer cell viability; format: cell-based; conditions: Homo sapiens, NCI-H1819, 72 h, read-out: IC50 (average ± SD)
# [14] = test system: Ba/F3 cells HER2 M774delinsWLV; assay: Ba/F3 cell viability; format: cell-based; conditions: Mus musculus, BaF3, 72 h, read-out: IC50 (average ± SD)
# [15] = test system: Ba/F3 cells HER2 V862I; assay: Ba/F3 cell viability; format: cell-based; conditions: Mus musculus, BaF3, 72 h, read-out: IC50 (average ± SD)
# [16] = test system: NCI-N87; assay: Cancer cell viability; format: cell-based, human; conditions: Homo sapiens, NCI-N87, 72 h, read-out: IC50 (average ± SD)
# [17] = test system: Ba/F3 cells HER2 P780_Y781insGSP; assay: Ba/F3 cell viability; format: cell-based; conditions: Mus musculus, BaF3, 72 h, read-out: IC50 (average ± SD)
# [18] = test system: Ba/F3 cells HER2 V777L; assay: Ba/F3 cell viability; format: cell-based; conditions: Mus musculus, BaF3, 72 h, read-out: IC50 (average ± SD)
# [19] = test system: HER2 mutant lung cancer; conditions: patients with HER2 mutant NSCLC, clinical trial ref 35; cited from earlier work
# [20] = test system: DFCI 429; assay: Patient-derived cancer cell viability; format: cell-based, human; conditions: Homo sapiens, 72 h, read-out: IC50 (average ± SD)
# [21] = test system: A-431; assay: Cancer cell viability; format: cell-based, human; conditions: read-out: IC50 (average ± SD); A-431, epidermoid, EGFR amp, 72 h
SMILES,IC50 [1] [nM],IC50 [2] [nM],IC50 [3] [nM],IC50 [4] [nM],IC50 [5] [nM],IC50 [6] [nM],IC50 [7] [nM],IC50 [8] [nM],IC50 [9] [nM],IC50 [10] [nM],IC50 [11] [nM],IC50 [12] [nM],IC50 [13] [nM],IC50 [14] [nM],IC50 [15] [nM],IC50 [16] [nM],IC50 [17] [nM],IC50 [18] [nM],IC50 [20] [nM],IC50 [21] [nM],other results
CS(=O)(=O)CCNCc1ccc(-c2ccc3ncnc(Nc4ccc(OCc5cccc(F)c5)c(Cl)c4)c3c2)o1 [lapatinib],202 ± 70.2,302 ± 64.8,177 ± 88.6,530 ± 407,845 ± 381,3780,248 ± 220,2420,6790,130 ± 18,5390,65.3 ± 49.7,341 ± 171,621 ± 333,336 ± 74.5,16.3 ± 6.6,210 ± 56,13.1 ± 5.79,–,–,–
CCOc1cc2ncc(C#N)c(Nc3ccc(OCc4ccccn4)c(Cl)c3)c2cc1NC(=O)/C=C/CN(C)C [neratinib],5.78 ± 2.09,13.5 ± 6.52,5.64 ± 3.72,49.1 ± 64,112 ± 69.7,48 ± 10,57.9 ± 39.6,296 ± 331,1280,5.41 ± 4.54,68.4 ± 65.5,7.4 ± 4.64,50.8 ± 14.1,16 ± 11.7,8.64 ± 3.81,1.1 ± 0.1,4.96 ± 2.31,2.66 ± 0.48,51.9 ± 45.8,–,patients with objective response [19]: one out of 26
CN(C)C/C=C/C(=O)Nc1cc2c(Nc3ccc(F)c(Cl)c3)ncnc2cc1O[C@H]1CCOC1 [afatinib],2.96 ± 1.29,–,2.75 ± 2.89,14.1 ± 20.6,83.2 ± 35.7,175 ± 136,162 ± 110,169 ± 84.6,1970,1.79 ± 1.39,117 ± 105,6.89 ± 6.66,29.5 ± 19.5,8.75 ± 3.74,22.1 ± 10.9,1.7 ± 0.2,5.17 ± 2.32,3.13 ± 0.21,163 ± 153,73.9 ± 60.9,–
C=CC(=O)N1CCC(Oc2cc3c(Nc4ccc(Cl)c(Cl)c4F)ncnc3cc2OC)CC1 [poziotinib],1.05 ± 0.67,1.41 ± 0.56,1.08 ± 1.04,73.5 ± 41.1,523 ± 440,368 ± 414,4.7 ± 2,197 ± 147,5940,0.95 ± 0.94,929,1.17 ± 0.86,75.5 ± 28.8,3.45 ± 2.45,29.3 ± 43,0.7,1.28 ± 1.12,2.43 ± 0.77,744 ± 747,59.9 ± 46.1,–
